Target: T1, F508del (Homo sapiens, UniProt P13569, DEL508-508)
T1 construct: expressed in transfected cells
Assay: Membrane potential optical assay (FRET voltage-sensor dyes), identification of correction compounds
Assay type: cell-based
Conditions: NIH3T3 cells stably expressing F508del, procedures described above; for Emax: maximum efficacy, read-out: Max Efficacy; for EC50: modulation of CFTR activity
Procedure, shortened: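 NIH3T3 mouse fibroblasts stably expressing F508del incubated 16 hrs at 37° C. in serum-free medium with or without compound. After dye loading (CC2-DMPE/DiSBAC2(3)), 10 μM forskolin plus 20 μM genistein added in Cl⁻-free medium; depolarization from Cl⁻ efflux read by FRET on VIPR II.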

T1 sequence (P13569 with tags, fused parts or gaps DEL508-508): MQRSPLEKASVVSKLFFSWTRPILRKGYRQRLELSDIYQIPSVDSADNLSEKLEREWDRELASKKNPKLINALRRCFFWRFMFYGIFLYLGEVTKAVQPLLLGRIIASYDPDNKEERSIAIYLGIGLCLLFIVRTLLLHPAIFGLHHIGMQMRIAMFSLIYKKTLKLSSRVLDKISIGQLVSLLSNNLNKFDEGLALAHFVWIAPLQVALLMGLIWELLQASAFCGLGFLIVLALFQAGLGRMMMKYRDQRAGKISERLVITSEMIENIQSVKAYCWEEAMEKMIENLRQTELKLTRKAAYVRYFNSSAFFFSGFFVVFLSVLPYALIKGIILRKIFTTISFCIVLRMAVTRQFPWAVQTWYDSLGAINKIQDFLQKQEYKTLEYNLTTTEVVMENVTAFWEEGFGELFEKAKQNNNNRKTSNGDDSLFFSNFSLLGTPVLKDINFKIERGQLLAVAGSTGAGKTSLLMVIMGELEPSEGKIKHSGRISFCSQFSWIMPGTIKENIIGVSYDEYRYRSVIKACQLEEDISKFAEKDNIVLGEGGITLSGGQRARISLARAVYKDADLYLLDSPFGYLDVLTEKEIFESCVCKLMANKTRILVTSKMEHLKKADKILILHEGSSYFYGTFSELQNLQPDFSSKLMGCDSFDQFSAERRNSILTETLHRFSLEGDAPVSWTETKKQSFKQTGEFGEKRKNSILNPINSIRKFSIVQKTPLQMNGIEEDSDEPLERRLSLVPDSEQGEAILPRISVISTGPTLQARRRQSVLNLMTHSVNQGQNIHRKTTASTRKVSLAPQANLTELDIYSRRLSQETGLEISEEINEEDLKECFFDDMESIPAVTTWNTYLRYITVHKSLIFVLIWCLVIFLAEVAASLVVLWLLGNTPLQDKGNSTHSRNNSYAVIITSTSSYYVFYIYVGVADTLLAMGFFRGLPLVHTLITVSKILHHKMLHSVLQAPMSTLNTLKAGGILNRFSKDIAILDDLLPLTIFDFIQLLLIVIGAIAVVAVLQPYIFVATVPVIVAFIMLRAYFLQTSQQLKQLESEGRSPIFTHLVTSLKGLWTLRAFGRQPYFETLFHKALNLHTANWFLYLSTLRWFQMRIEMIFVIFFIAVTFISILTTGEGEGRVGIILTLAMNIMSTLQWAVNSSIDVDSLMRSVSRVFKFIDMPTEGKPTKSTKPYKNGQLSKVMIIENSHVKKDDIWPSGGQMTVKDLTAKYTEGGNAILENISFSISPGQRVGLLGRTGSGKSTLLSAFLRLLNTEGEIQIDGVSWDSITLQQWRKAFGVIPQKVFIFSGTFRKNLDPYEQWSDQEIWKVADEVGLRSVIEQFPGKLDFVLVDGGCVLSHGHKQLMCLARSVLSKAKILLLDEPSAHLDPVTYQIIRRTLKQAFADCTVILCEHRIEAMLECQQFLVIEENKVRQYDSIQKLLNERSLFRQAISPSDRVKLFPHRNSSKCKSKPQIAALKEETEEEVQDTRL

SMILES	Emax [%]	EC50 [µM]
CCN(C)c1nc(-c2cc(F)cc(OCC(C)C)c2)ccc1C(=O)NS(=O)(=O)c1cccc(N)n1 [Compound 67, N-[(6-amino-2-pyridyl)sulfonyl]-2-[ethyl(methyl)amino]-6-(3-fluoro-5-isobutoxy-phenyl)pyridine-3-carboxamide]	> 80	< 3
CC(C)COc1cc(F)cc(-c2ccc(C(=O)NS(=O)(=O)c3cccc(N)n3)c(OC(C(C)C)C(C)(C)C)n2)c1 (centres unmarked) [Compound 68, N-[(6-amino-2-pyridyl)sulfonyl]-6-(3-fluoro-5-isobutoxy-phenyl)-2-(1-isopropyl-2,2-dimethyl-propoxy)pyridine-3-carboxamide]	30 to 80	< 3
CCC(CC)N(C)c1nc(-c2cc(F)cc(OCC(C)C)c2)ccc1C(=O)NS(=O)(=O)c1cccc(N)n1 [Compound 69, N-[(6-amino-2-pyridyl)sulfonyl]-2-[1-ethylpropyl(methyl)amino]-6-(3-fluoro-5-isobutoxy-phenyl)pyridine-3-carboxamide]	> 80	< 3
CC(C)Oc1ccc(-c2ccc(C(=O)NS(=O)(=O)c3cccc(N)n3)c(N(C)C(C)C)n2)cn1 [Compound 70, N-[(6-amino-2-pyridyl)sulfonyl]-6-(6-isopropoxy-3-pyridyl)-2-[isopropyl(methyl)amino]pyridine-3-carboxamide]	30 to 80	3 to 10
CCOCC(C)Oc1nc(-c2cc(F)cc(OCC(C)C)c2)ccc1C(=O)NS(=O)(=O)c1cccc(N)n1 (centres unmarked) [Compound 71, N-[(6-amino-2-pyridyl)sulfonyl]-2-(2-ethoxy-1-methyl-ethoxy)-6-(3-fluoro-5-isobutoxy-phenyl)pyridine-3-carboxamide]	30 to 80	< 3
CC(C)COc1cc(F)cc(-c2ccc(C(=O)NS(=O)(=O)c3ccn[nH]3)c(NCC(C)(C)C)n2)c1 [Compound 72, 2-(2,2-dimethylpropylamino)-6-(3-fluoro-5-isobutoxy-phenyl)-N-(1H-pyrazol-5-ylsulfonyl)pyridine-3-carboxamide]	30 to 80	3 to 10
CC(C)COc1cc(F)cc(-c2ccc(C(=O)NS(=O)(=O)c3cccc(N)n3)c(OC(C)C(F)(F)F)n2)c1 (centres unmarked) [Compound 73, N-[(6-amino-2-pyridyl)sulfonyl]-6-(3-fluoro-5-isobutoxy-phenyl)-2-(2,2,2-trifluoro-1-methyl-ethoxy)pyridine-3-carboxamide]	30 to 80	< 3
CCN(c1nc(-c2cc(F)cc(OCC(C)C)c2)ccc1C(=O)NS(=O)(=O)c1cccc(N)n1)C(C)C [Compound 74, N-[(6-amino-2-pyridyl)sulfonyl]-2-[ethyl(isopropyl)amino]-6-(3-fluoro-5-isobutoxy-phenyl)pyridine-3-carboxamide]	> 80	< 3
CC(C)COc1cc(F)cc(-c2ccc(C(=O)NS(=O)(=O)c3cccc(N)n3)c(N(C)[C@H](C)C(F)(F)F)n2)c1 [Compound 75, N-[(6-amino-2-pyridyl)sulfonyl]-6-(3-fluoro-5-isobutoxy-phenyl)-2-[methyl-[(1R)-2,2,2-trifluoro-1-methyl-ethyl]amino]pyridine-3-carboxamide]	> 80	< 3
CC(C)COc1cc(F)cc(-c2ccc(C(=O)NS(=O)(=O)c3cccc(N)n3)c(C(C)C(C)C)n2)c1 (centres unmarked) [Compound 76, N-[(6-amino-2-pyridyl)sulfonyl]-2-(1,2-dimethylpropyl)-6-(3-fluoro-5-isobutoxy-phenyl)pyridine-3-carboxamide]	30 to 80	< 3
CCC(C)(C)CCOc1nc(-c2cc(F)cc(OCC(C)C)c2)ccc1C(=O)NS(=O)(=O)c1cccc(N)n1 [Compound 77, N-[(6-amino-2-pyridyl)sulfonyl]-2-(3,3-dimethylpentoxy)-6-(3-fluoro-5-isobutoxy-phenyl)pyridine-3-carboxamide]	30 to 80	< 3
CC(C)COc1cc(F)cc(-c2ccc(C(=O)NS(=O)(=O)c3ccn[nH]3)c(N(C)C(C)C)n2)c1 [Compound 79, 6-(3-fluoro-5-isobutoxy-phenyl)-2-[isopropyl(methyl)amino]-N-(1H-pyrazol-5-ylsulfonyl)pyridine-3-carboxamide]	> 80	< 3
CC(C)COc1cc(F)cc(-c2ccc(C(=O)NS(=O)(=O)c3cccc(N)n3)c(NCCC(C)(C)O)n2)c1 [Compound 80, N-[(6-amino-2-pyridyl)sulfonyl]-6-(3-fluoro-5-isobutoxy-phenyl)-2-[(3-hydroxy-3-methyl-butyl)amino]pyridine-3-carboxamide]	30 to 80	> 10
CC(C)COc1cc(F)cc(-c2ccc(C(=O)NS(=O)(=O)c3cccc(N)n3)c(OCCC(F)(F)F)n2)c1 [Compound 81, N-[(6-amino-2-pyridyl)sulfonyl]-6-(3-fluoro-5-isobutoxy-phenyl)-2-(3,3,3-trifluoropropoxy)pyridine-3-carboxamide]	30 to 80	< 3
CC(C)COc1cc(F)cc(-c2ccc(C(=O)NS(=O)(=O)c3cccc(N)n3)c(OCCCC(F)(F)F)n2)c1 [Compound 82, N-[(6-amino-2-pyridyl)sulfonyl]-6-(3-fluoro-5-isobutoxy-phenyl)-2-(4,4,4-trifluorobutoxy)pyridine-3-carboxamide]	30 to 80	< 3
CC(C)COc1cc(F)cc(-c2ccc(C(=O)NS(=O)(=O)c3cccc(N)n3)c(OC/C=C/C(F)(F)F)n2)c1 [Compound 83, N-[(6-amino-2-pyridyl)sulfonyl]-6-(3-fluoro-5-isobutoxy-phenyl)-2-[(E)-4,4,4-trifluorobut-2-enoxy]pyridine-3-carboxamide]	30 to 80	< 3
CCCCCNc1nc(-c2cc(F)cc(OCC(C)C)c2)ccc1C(=O)NS(=O)(=O)c1cccc(N)n1 [Compound 84, N-[(6-amino-2-pyridyl)sulfonyl]-6-(3-fluoro-5-isobutoxy-phenyl)-2-(pentylamino)pyridine-3-carboxamide]	> 80	3 to 10
CCOc1cccc2c1CN(CC(C)(C)C)C2(C)C(=O)NS(=O)(=O)c1cccc(=O)[nH]1 (centres unmarked) [Compound 85, 2-(2,2-dimethylpropyl)-4-ethoxy-1-methyl-N-[(6-oxo-1H-pyridin-2-yl)sulfonyl]isoindoline-1-carboxamide]	≤ 30	> 10
CC(C)COc1cc(F)cc(-c2ccc(C(=O)NS(=O)(=O)c3ccccc3)c(N(C)CCCC(=O)O)n2)c1 [Compound 86, 4-[[3-(benzenesulfonylcarbamoyl)-6-(3-fluoro-5-isobutoxy-phenyl)-2-pyridyl]-methyl-amino]butanoic Acid]	≤ 30	> 10
